Where two headings read alike, the source gives them in different places. Ends that are not written are not given here.
Experiments:
[1] = tested on: Huanglongbing pathogen CLas; assay type: cell-based, Candidatus Liberibacter asiaticus (CLas); conditions: for CLas titer in infected leaf midribs: 1 μM artificially synthesized peptide; for number of pathogens in citrus infected with Huanglongbing: summary statement, demonstrated by experiments
CLas cells = assay type: cell-based, Candidatus Liberibacter asiaticus (CLas); conditions: for lysis of Huanglongbing pathogens: summary statement, demonstrated by experiments
[2] = tested on: Huanglongbing pathogen CLas; assay type: cell-based, Candidatus Liberibacter asiaticus (CLas); conditions: for inhibitory effect on CLas after heat pretreatment: used at 1 μM, 48 h, compared with BSA, FIG. 4D
[3] = tested on: Huanglongbing pathogen CLas; assay type: in vivo, Candidatus Liberibacter asiaticus (CLas)
Huanglongbing pathogens = assay type: in vivo, citrus (Chunmi orange); conditions: field, whole plant, same injection method, two months after treatment; FIG. 6
[4] = tested on: Huanglongbing pathogen CLas; conditions: for IC50: read-out: CLas half inhibitory concentration (IC50), treated for 48 hours, FIG. 4C

Sequence: DPMIWGYVMLNDSK [AMP-β, variant containing conserved β-sheet region; synthesized and also made by prokaryotic expression]
- CLas titer in infected leaf midribs ([1]; 48 h, FIG. 4A): significantly reduce the CLas titer
- number of pathogens in citrus infected with Huanglongbing [1]: reduce the number of pathogens
- lysis of Huanglongbing pathogens (CLas cells): promote lysis of Huanglongbing pathogens

Sequence: DPMIWGYVMLSESK [AMP3-14, DPMIWGYVMLSESK]
- CLas titer in infected leaf veins ([1]; 100 nM artificially synthesized peptide, 48 h, FIG. 4A): significantly reduce the CLas titer
- CLas titer in infected leaf midribs ([1]; 48 h, FIG. 4A): significantly reduce the CLas titer
- number of pathogens in citrus infected with Huanglongbing [1]: reduce the number of pathogens
- thermal stability ([2]; 35° C. and 45° C. for 20 hours): good thermal stability
- inhibitory effect on CLas after heat pretreatment ([2]; pretreated at 35° C. for 20 hours): still significant
- inhibitory effect on CLas after heat pretreatment ([2]; pretreated at 45° C. for 20 hours): still significant
- symptoms of yellowing in leaves of infected plants ([3]; 1 μM solution, continuous trunk infusion, 6 months, FIG. 5B): disappeared
- Ct value of CLas in infected plants ([3]; 1 μM solution, continuous trunk infusion, 6 months, FIG. 5C): not significantly different from that of healthy plants
- Ct value of CLas in treated plants after removal of treatment ([3]; treatment removed after 7 months, titer monitored continuously): still not significantly different from that of healthy plants
- growth of new citrus leaves (Huanglongbing pathogens): significantly promote the growth of new citrus leaves
- destruction of pathogenic cells compared with AMP3 (transmission electron microscope) (CLas cells; 1 μM, 24 hours, FIG. 7): better effect on the destruction of pathogenic cells
- lysis of Huanglongbing pathogens (CLas cells): promote lysis of Huanglongbing pathogens
- effectiveness in reducing the CLas titer compared with AMP3 ([4]; from IC50 values at 48 hours): more effective in reducing the CLas titer
- IC50 [4]: 1 µM

Sequence: MKKVKNIFHKIANADPMIWGYVMLSESK [AMP3]
- CLas titer in infected leaf midribs ([1]; 48 h, FIG. 4A): significantly reduce the CLas titer
- number of pathogens in citrus infected with Huanglongbing [1]: reduce the number of pathogens
- lysis of Huanglongbing pathogens (CLas cells): promote lysis of Huanglongbing pathogens
- IC50 [4]: 52.1 µM

Sequence: MKKVKNIFHKIANADPMIWGYVML [AMP3-24, truncated peptide of AMP3]
- number of pathogens in citrus infected with Huanglongbing [1]: reduce the number of pathogens
- lysis of Huanglongbing pathogens (CLas cells): promote lysis of Huanglongbing pathogens

Sequence: DPMIWGYVMLNDRLSK [AMP9-16, truncated peptide of AMP9]
- CLas titer in infected leaf midribs ([1]; 48 h, FIG. 4A): significantly reduce the CLas titer
- number of pathogens in citrus infected with Huanglongbing [1]: reduce the number of pathogens
- lysis of Huanglongbing pathogens (CLas cells): promote lysis of Huanglongbing pathogens

Sequence: MKKVKNIFHKIANA [AMP-α, contains only an α-helix fragment]
- CLas titer in infected leaf midribs ([1]; 48 h, FIG. 4A): not able to change the CLas titer

Sequence: DPMIWGYVMLSESKDPMIWGYVMLNDSK [AMP-2β, dimer of β-sheet fragments obtained by prokaryotic expression and purification]
- number of pathogens in citrus infected with Huanglongbing [1]: reduce the number of pathogens
- lysis of Huanglongbing pathogens (CLas cells): promote lysis of Huanglongbing pathogens

Sequence: MKKVKNIFHKIANADPMIWGYVMLNDRLSK [AMP9]
- CLas titer in infected leaf midribs ([1]; 48 h, FIG. 4A): significantly reduce the CLas titer
- number of pathogens in citrus infected with Huanglongbing [1]: reduce the number of pathogens
- lysis of Huanglongbing pathogens (CLas cells): promote lysis of Huanglongbing pathogens

Reference: US20260193296A1 (priority 2023, published 2026)
